Measured values from patent publication US20230202989A1, “COMPOUNDS” (JANSSEN PHARMACEUTICA NV, priority 2020, published 2023).
Where two headings read alike, the source gives them in different places.

Columns and labels:
IL-1β = assay: PBMC assay: inhibition of IL-1β release after LPS stimulation (MSD); type: cell-based; details: human PBMCs, 100 ng/ml LPS for 6 hrs, MSD, 96 well plates, read-out: IL1β IC50
Summary of the method: (§1)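 TNF (EC50) and IL-1β (IC50) were quantified by MSD in supernatants after 6 h stimulation with 100 ng/ml LPS. Thawed healthy-donor PBMCs, 7.5×10^4 per well, were exposed to 1:3 compound dilutions for 30 min beforehand at 37 °C.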

TNF = assay: PBMC assay: TNF cytokine levels after LPS stimulation (MSD); type: cell-based; details: human PBMCs, 100 ng/ml LPS for 6 hrs
Summary of the method: as §1

IC50 (IL-1β; Homo sapiens, PBMC, 6 h) | EC50 (TNF; Homo sapiens, PBMC, 6 h) | IC50 (IL-1β) | EC50 (TNF) | SMILES
7.5 µM | > 20 µM | – | – | CCN1CCCC(NC(=O)Cn2nc(C(C)C)c3cc(C(F)(F)F)ccc3c2=O)C1=O (stereo not shown) [Final Cpd X152]
3.09 µM | > 20 µM | – | – | CC(C)c1nn(CC(=O)Nc2ccc(I)nn2)c(=O)c2ccc(C(F)(F)F)cc12 [Final Cpd X154]
7.91 µM | 17.6 µM | – | – | CC(C)(F)c1nn(CC(=O)Nc2ccnnc2)c(=O)c2ccc(C(F)(F)F)cc12 [Final Cpd X155]
8.77 µM | > 20 µM | – | – | CC(C)c1nn(CC(=O)NC2CC(F)(F)C2)c(=O)c2ccc(C(F)(F)F)cc12 [Final Cpd X156]
9.99 µM | > 20 µM | – | – | COC1(c2nn(CC(=O)Nc3ccc4nncn4c3)c(=O)c3ccc(C(F)(F)F)cc23)CC1 [Final Cpd X158]
13.4 µM | > 20 µM | – | – | CC(C)c1nn(CC(=O)Nc2ccc3c(ncn3C)n2)c(=O)c2ccc(C(F)(F)F)cc12 [Final Cpd X160]
14.2 µM | > 20 µM | – | – | CC(C)c1nn(CC(=O)Nc2ccc(C(F)(F)F)nn2)c(=O)c2ccc(C(F)(F)F)cc12 [Final Cpd X161]
15 µM | > 20 µM | – | – | CC(C)c1nn(CC(=O)Nc2cc(C#N)c3ncnn3c2)c(=O)c2ccc(C(F)(F)F)cc12 [Final Cpd X162]
16.1 µM | > 20 µM | – | – | Cc1nnc2cc(NC(=O)Cn3nc(C(C)C)c4cc(C(F)(F)F)ccc4c3=O)ccn12 [Final Cpd X165]
17.8 µM | > 20 µM | – | – | Cc1cc2nccn2cc1NC(=O)Cn1nc(C(C)C)c2cc(C(F)(F)F)ccc2c1=O [Final Cpd X167]
> 20 µM | > 20 µM | – | – | CC(C)CN1CCc2cc(NC(=O)Cn3nc(C(C)C)c4cc(C(F)(F)F)ccc4c3=O)ccc21 [Final Cpd X168]
> 20 µM | > 20 µM | – | – | CC(C)c1nn(CC(=O)Nc2ccc3nn(C)nc3c2)c(=O)c2ccc(C(F)(F)F)cc12 [Final Cpd X169]
> 20 µM | > 20 µM | – | – | CC(C)c1nn(CC(=O)Nc2ccc3nncn3c2)c(=O)c2ccc(C(F)(F)F)c(C#N)c12 [Final Cpd X170]
> 20 µM | > 20 µM | – | – | CCN1CCc2cc(NC(=O)Cn3nc(C(C)C)c4cc(C(F)(F)F)ccc4c3=O)ccc21 [Final Cpd X171]
> 20 µM | > 20 µM | – | – | CC(C)c1nn(CC(=O)Nc2ccc3c(c2)CCN3C(C)C)c(=O)c2ccc(C(F)(F)F)cc12 [Final Cpd X173]
> 20 µM | > 20 µM | – | – | CC(C)c1nn(CC(=O)Nc2ccc(C(F)F)nn2)c(=O)c2ccc(C(F)(F)F)cc12 [Final Cpd X176]
> 20 µM | > 20 µM | – | – | CO[C@H]1CC[C@H](NC(=O)Cn2nc(C(C)C)c3cc(C(F)(F)F)ccc3c2=O)CC1 [Final Cpd X177]
> 20 µM | > 20 µM | – | – | CC(C)c1nn(CC(=O)Nc2cc(C(F)(F)F)ncn2)c(=O)c2ccc(C(F)(F)F)cc12 [Final Cpd X178]
> 20 µM | > 20 µM | – | – | CC(C)c1nn(CC(=O)Nc2ccc(C3CC3)nn2)c(=O)c2ccc(C(F)(F)F)cc12 [Final Cpd X179]
> 20 µM | > 20 µM | – | – | CC(C)(F)c1nn(CC(=O)Nc2ccncn2)c(=O)c2ccc(C(F)(F)F)cc12 [Final Cpd X180]
> 20 µM | > 20 µM | – | – | CC(C)c1nn(CC(=O)Nc2ncc3ncn(C)c3n2)c(=O)c2ccc(C(F)(F)F)cc12 [Final Cpd X181]
0.122 µM | > 20 µM | – | – | O=C(Cn1nc(C(F)F)c2cc(Br)ccc2c1=O)Nc1ccc2nncn2n1 [X-1000]

IC50 (IL-1β; Homo sapiens, PBMC, 6 h) | EC50 (TNF; Homo sapiens, PBMC, 6 h) | IC50 (IL-1β) | EC50 (TNF) | SMILES
0.224 µM | > 20 µM | – | – | O=C(Cn1nc(C2CC2)c2cc(Br)ccc2c1=O)Nc1ccc2nncn2n1 [X-1001]
0.453 µM | > 20 µM | – | – | O=C(Cn1nc(C2CC2)c2cc(Cl)ccc2c1=O)Nc1ccc2nncn2n1 [X-1002]
0.04 µM | 9.89 µM | – | – | CC(C)c1nn(CC(=O)Nc2ccc3nncn3n2)c(=O)c2ccc(C(C)(F)F)cc12 [X-1003]
0.041 µM | > 20 µM | – | – | CC(C)c1nn(CC(=O)Nc2ccc3nncn3n2)c(=O)c2ccc(Br)cc12 [X-1004]
1.47 µM | > 20 µM | – | – | CC(C)c1nn(CC(=O)Nc2ccc3cnn(C)c3n2)c(=O)c2ccc(Br)cc12 [X-1005]
0.128 µM | 4.47 µM | – | – | CC(C)c1nn(CC(=O)Nc2ccc3nccn3n2)c(=O)c2ccc(C(C)(F)F)cc12 [X-1006]
0.015 µM | 2.13 µM | – | – | CC(C)c1nn(CC(=O)Nc2ccc3nncn3n2)c(=O)c2ccc(C3(F)CC3)cc12 [X-1007]
0.033 µM | 2.61 µM | – | – | CC(C)c1nn(CC(=O)Nc2ccc3nncn3n2)c(=O)c2ccc(C3CC3)cc12 [X-1008]
0.045 µM | 2.83 µM | – | – | CC(C)c1ccc2c(=O)n(CC(=O)Nc3ccc4nncn4n3)nc(C(C)C)c2c1 [X-1009]
0.017 µM | 3.11 µM | – | – | CC(C)c1nn(CC(=O)Nc2ccc3nncn3n2)c(=O)c2ccc(C(C)(C)F)cc12 [X-1010]
0.089 µM | 7.56 µM | – | – | CC(C)c1nn(CC(=O)Nc2ccc3nccn3n2)c(=O)c2ccc(C(C)(C)F)cc12 [X-1011]
0.18 µM | 1.08 µM | – | – | CC(C)c1nn(CC(=O)Nc2ccc3nncn3n2)c(=O)c2ccc(C3CCC3)cc12 [X-1012]
> 20 µM | > 20 µM | – | – | CCc1nn(CC(=O)Nc2c(-c3ccnc(OC)c3)ccc3c2CCC3)c(=O)c2ccc(Br)cc12 [X-1013]
> 20 µM | > 20 µM | – | – | CC(=O)c1nn(CC(=O)Nc2ccn(C(C)C)n2)c(=O)c2ccc(Br)cc12 [X-1014, 2-(4-acetyl-6-bromo-1-oxophthalazin-2(1H)-yl)-N-(1-isopropyl-1H-pyrazol-3-yl)acetamide]
2.13 µM | > 20 µM | – | – | COC(C)c1nn(CC(=O)Nc2ccnnc2)c(=O)c2ccc(Br)cc12 (stereo not shown) [X-1015]
0.819 µM | > 20 µM | – | – | COC(C)c1nn(CC(=O)Nc2ccncn2)c(=O)c2ccc(Br)cc12 (stereo not shown) [X-1016]
0.506 µM | > 20 µM | – | – | COC(C)c1nn(CC(=O)Nc2ccc3nncn3c2)c(=O)c2ccc(Br)cc12 (stereo not shown) [X-1017]
0.832 µM | > 20 µM | – | – | COC(C)c1nn(CC(=O)N[C@H]2C[C@@](C)(O)C2)c(=O)c2ccc(Br)cc12 (stereo partly shown) [X-1018]
0.183 µM | > 20 µM | – | – | O=C(Cn1nc(C(F)F)c2cc(Br)ccc2c1=O)Nc1ccc2nncn2c1 [X-1019]
0.133 µM | > 20 µM | – | – | C[C@]1(O)C[C@@H](NC(=O)Cn2nc(C(F)F)c3cc(Br)ccc3c2=O)C1 [X-1020]
0.437 µM | > 20 µM | – | – | Cn1nc(NC(=O)Cn2nc(C(F)F)c3cc(Br)ccc3c2=O)ccc1=O [X-1021]
0.057 µM | > 20 µM | – | – | C[C@]1(O)C[C@@H](NC(=O)Cn2nc(C3CC3)c3cc(Br)ccc3c2=O)C1 [X-1022]

IC50 (IL-1β; Homo sapiens, PBMC, 6 h) | EC50 (TNF; Homo sapiens, PBMC, 6 h) | IC50 (IL-1β) | EC50 (TNF) | SMILES
0.101 µM | > 20 µM | – | – | O=C(Cn1nc(C2CC2)c2cc(Br)ccc2c1=O)Nc1ccc2nncn2c1 [X-1023]
0.497 µM | > 20 µM | – | – | Cn1nc(NC(=O)Cn2nc(C3CC3)c3cc(Br)ccc3c2=O)ccc1=O [X-1024]
– | – | 2.52 µM | > 20 µM | COc1ccc2c(=O)n(CC(=O)Nc3ccncn3)nc(C(C)C)c2c1 [X-1025]
> 20 µM | > 20 µM | – | – | CCc1nn(CC(=O)Nc2ccn(C(C)C)n2)c(=O)c2ccc(C3CC3)cc12 [X-1026]
0.06 µM | > 20 µM | – | – | CC(C)c1nn(CC(=O)N[C@H]2C[C@@](C)(O)C2)c(=O)c2ccc(Cl)cc12 [X-1027]
0.128 µM | > 20 µM | – | – | CC(C)c1nn(CC(=O)Nc2ccncn2)c(=O)c2ccc(Cl)cc12 [X-1028]
0.041 µM | > 20 µM | – | – | CC(C)c1nn(CC(=O)Nc2ccc3nncn3c2)c(=O)c2ccc(Cl)cc12 [X-1029]
0.436 µM | > 20 µM | – | – | CC(C)c1nn(CC(=O)Nc2ccc3cncn3c2)c(=O)c2ccc(Cl)cc12 [X-1030]
0.03 µM | 4.64 µM | – | – | CC(C)c1nn(CC(=O)Nc2ccc3c(c2)[nH]c(=O)n3C)c(=O)c2ccc(Br)cc12 [X-1031]
0.848 µM | > 20 µM | – | – | CC(C)c1nn(CC(=O)Nc2ccc3cnn(C)c3c2)c(=O)c2ccc(Br)cc12 [X-1033]
3.01 µM | > 20 µM | – | – | CC(C)c1nn(CC(=O)Nc2ccc3cnn(C(F)F)c3c2)c(=O)c2ccc(Br)cc12 [X-1034]
0.032 µM | > 20 µM | – | – | CC(C)c1nn(CC(=O)N[C@@H]2CCCN(C3CC3)C2)c(=O)c2ccc(Br)cc12 [X-1035]
0.141 µM | > 20 µM | – | – | CC(C)c1nn(CC(=O)Nc2ccc(=O)n(C)n2)c(=O)c2ccc(Br)cc12 [X-1036]
2.33 µM | > 20 µM | – | – | CCc1nn(CC(=O)N[C@H]2C[C@@](C)(O)C2)c(=O)c2ccc(N(C)C)cc12 [X-1037]
2.51 µM | 9.55 µM | – | – | CC(C)c1nn(CC(=O)Nc2ccncn2)c(=O)c2ccc(OC(F)(F)F)cc12 [X-1038]
13 µM | > 20 µM | – | – | CC(C)c1nn(CC(=O)N[C@H]2C[C@@](C)(O)C2)c(=O)c2ccc(OCC(F)(F)F)cc12 [X-1039]
1.13 µM | 7.19 µM | – | – | CC(C)c1nn(CC(=O)Nc2ccc3nncn3c2)c(=O)c2ccc(OC(F)(F)F)cc12 [X-1040]
1.33 µM | > 20 µM | – | – | CC(C)c1nn(CC(=O)N[C@H]2C[C@@](C)(O)C2)c(=O)c2ccc(OC(F)(F)F)cc12 [X-1041]
12.2 µM | > 20 µM | – | – | CCOC(C)c1ccc2c(=O)n(CC(=O)N[C@H]3C[C@@](C)(O)C3)nc(C(C)C)c2c1 (stereo partly shown) [X-1042]
11 µM | > 20 µM | – | – | CC(C)c1nn(CC(=O)N[C@H]2C[C@@](C)(O)C2)c(=O)c2ccc(C(C)(C)O)cc12 [X-1043]
4.38 µM | 8.29 µM | – | – | CC(C)c1nn(CC(=O)Nc2ccncn2)c(=O)c2ccc(C(C)(C)O)cc12 [X-1044]
